Source: patent US8952024B2, “Herbicidal pyrimidone derivatives” (E I du Pont de Nemours and Company, priority 2009, dated 2015)

What was measured:
Format in all cases: in vivo
[1] = tested on: barnyardgrass (Echinochloa crus-galli); test: Test B flooded paddy test; settings: for Plant response rating, Barnyardgrass: Flood (flooded paddy test), 13 to 15 days
How it was run: (§1)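 Plants were grown to the 2-leaf stage, then pots were flooded to 3 cm above the soil and compounds were applied directly into the paddy water. That depth was held throughout. After 13 to 15 days in a greenhouse, injury was visually rated against controls on a 0–100 scale.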

[2] = tested on: umbrella sedge (Cyperus difformis); test: Test B flooded paddy test; settings: for Plant response rating, Sedge, Umbrella: Flood (flooded paddy test), 13 to 15 days
How it was run: as §1

[3] = tested on: goosegrass (Eleusine indica); test: Test B pre-/postemergence plant response
How it was run: (§2)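 Pre-em in loam/sand; post-em at 1–4 leaf (2–18 cm) in peat mix. Solvent + surfactant formulation. Greenhouse 13–15 d; visual % control vs untreated, 0–100.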

[4] = tested on: green foxtail (Setaria viridis); test: Test B pre-/postemergence plant response
How it was run: as §2

[5] = tested on: yellow nutsedge (Cyperus esculentus); test: Test B pre-/postemergence plant response
How it was run: as §2

[6] = tested on: cocklebur (Xanthium strumarium); test: Test B pre-/postemergence plant response
How it was run: as §2

[7] = tested on: morningglory (Ipomoea coccinea); test: Test B pre-/postemergence plant response
How it was run: as §2

wild oat (Avena fatua) = test: Test B pre-/postemergence plant response
How it was run: as §2

[8] = tested on: wheat (Triticum aestivum); test: Test B pre-/postemergence plant response
How it was run: as §2

[9] = tested on: large crabgrass (Digitaria sanguinalis); test: Test B pre-/postemergence plant response
How it was run: as §2

[10] = tested on: lambsquarters (Chenopodium album); test: Test B pre-/postemergence plant response
How it was run: as §2

[11] = tested on: bermudagrass (Cynodon dactylon); test: Test B pre-/postemergence plant response
How it was run: as §2

[12] = 250 g ai/ha, flooded paddy test, visual rating on 0 to 100 scale (0 no effect, 100 complete control) after 13 to 15 days
[13] = 31 g ai/ha, scale of 0 to 100 where 0 is no effect and 100 is complete control
[14] = 62 g ai/ha, scale 0 to 100, 0 is no effect, 100 is complete control
[15] = 125 g ai/ha, scale 0 to 100, 0 is no effect, 100 is complete control
[16] = 250 g ai/ha, Preemergence, 0 to 100 scale
[17] = Postemergence, 62 g ai/ha, scale 0 (no effect) to 100 (complete control), 13 to 15 days
[18] = Postemergence, 125 g ai/ha, visual rating after 13 to 15 days, scale 0 (no effect) to 100 (complete control)
[19] = Postemergence, 250 g ai/ha, scale 0 to 100
[20] = Preemergence, 31 g ai/ha, scale 0 to 100 (0 no effect, 100 complete control)
[21] = Preemergence, 125 g ai/ha, 0 to 100 scale
[22] = Postemergence, 31 g ai/ha, scale 0 to 100 (0 no effect, 100 complete control)
[23] = Preemergence, 62 g ai/ha, scale 0 to 100 (0 no effect, 100 complete control)

Cc1cc(C)cc(-n2c(-c3ccccc3)ncc(C(=O)C3=C(O)CCCC3=O)c2=O)c1 [Compound 33]
98: Plant response rating, Goosegrass [3, 16] | Crabgrass, Large plant response rating [9, 19] | Plant response rating, Crabgrass, Large [9, 23] | Plant response rating, Lambsquarters [10, 17] | Plant response rating, Lambsquarters [10, 18] | Plant response rating, Lambsquarters [10, 20] | Plant response rating, Bermudagrass [11, 18] | Bermudagrass plant response rating [11, 19] | Plant response rating, Bermudagrass [11, 20]
85: Plant response rating, Flood, Sedge, Umbrella [2, 12] | Plant response rating, Goosegrass [3, 18] | Goosegrass plant response rating [3, 19] | Plant response rating, Foxtail, Green [4, 17] | Plant response rating, Cocklebur [6, 22] | Cocklebur plant response rating [6, 21] | Plant response rating, Crabgrass, Large [9, 17] | Plant response rating, Crabgrass, Large [9, 20]
30: Plant response rating, Barnyardgrass [1, 15] | Plant response rating, Sedge, Umbrella [2, 14] | Oat, Wild plant response rating (wild oat (Avena fatua); [21])
20: Plant response rating, Barnyardgrass [1, 14] | Plant response rating, Sedge, Umbrella [2, 13]
40: Plant response rating, Flood, Barnyardgrass [1, 12] | Plant response rating, Oat, Wild (wild oat (Avena fatua); [18])
45: Plant response rating, Foxtail, Green [4, 23] | Plant response rating, Nutsedge, Yellow [5, 23]
0: Plant response rating, Barnyardgrass [1, 13] | Plant response rating, Foxtail, Green [4, 20] | Plant response rating, Nutsedge, Yellow [5, 20] | Plant response rating, Morningglory [7, 20] | Plant response rating, Oat, Wild (wild oat (Avena fatua); [20]) | Plant response rating, Oat, Wild (wild oat (Avena fatua); [23]) | Plant response rating, Wheat [8, 17] | Plant response rating, Wheat [8, 20] | Plant response rating, Wheat [8, 23] | Wheat plant response rating [8, 21]
75: Plant response rating, Goosegrass [3, 17] | Plant response rating, Nutsedge, Yellow [5, 18] | Plant response rating, Crabgrass, Large [9, 22] | Plant response rating, Bermudagrass [11, 22]
80: Plant response rating, Goosegrass [3, 20] | Plant response rating, Cocklebur [6, 23] | Plant response rating, Morningglory [7, 18]
60: Plant response rating, Morningglory [7, 17]
100: Plant response rating, Foxtail, Green [4, 16] | Foxtail, Green plant response rating [4, 21] | Plant response rating, Crabgrass, Large [9, 16] | Crabgrass, Large plant response rating [9, 21] | Plant response rating, Lambsquarters [10, 16] | Lambsquarters plant response rating [10, 19] | Plant response rating, Lambsquarters [10, 23] | Lambsquarters plant response rating [10, 21] | Plant response rating, Bermudagrass [11, 16] | Plant response rating, Bermudagrass [11, 23] | Bermudagrass plant response rating [11, 21]
15: Plant response rating, Morningglory [7, 23] | Plant response rating, Oat, Wild (wild oat (Avena fatua); [17])
70: Nutsedge, Yellow plant response rating [5, 21] | Morningglory plant response rating [7, 21]
5: Plant response rating, Wheat [8, 16] | Plant response rating, Wheat [8, 18]
95: Plant response rating, Cocklebur [6, 18] | Cocklebur plant response rating [6, 19] | Plant response rating, Bermudagrass [11, 17]
25: Plant response rating, Cocklebur [6, 20]
50: Plant response rating, Sedge, Umbrella [2, 15] | Plant response rating, Foxtail, Green [4, 22] | Plant response rating, Nutsedge, Yellow [5, 17] | Plant response rating, Oat, Wild (wild oat (Avena fatua); [16])
90: Goosegrass plant response rating [3, 21] | Plant response rating, Foxtail, Green [4, 18] | Foxtail, Green plant response rating [4, 19] | Plant response rating, Nutsedge, Yellow [5, 16] | Plant response rating, Cocklebur [6, 16] | Plant response rating, Cocklebur [6, 17] | Plant response rating, Morningglory [7, 16] | Plant response rating, Crabgrass, Large [9, 18]
